Measurements: PMC11052316, “New Transferrin Receptor-Targeted Peptide–Doxorubicin Conjugates: Synthesis and In Vitro Antitumor Activity” (Molecules, 2024)
Read-outs that look alike come from different tables or passages of the source. Square brackets hold non-standard residues; d marks the D form. Peptide text beside a SMILES is read from it. * marks the point of attachment. X1 = COc1cccc2c1C(=O)c1c(O)c3c(c(O)c1C2=O)C[C@@](O)(C(=O)CO)C[C@@H]3O[C@H]1C[C@H](NC(=O)CCS*)[C@H](O)[C@H](C)O1

Tests used:
LO2 cells [1] = experiment: Confocal microscopy analysis of cellular uptake; format: cell-based, human; conditions: LO2, 10 μM, 4 h, confocal laser scanning microscopy
Method: (§1) A549, HepG2, U87, or LO2 cells were seeded on glass coverslips (5 × 10^4 cells/well) in 24-well cell culture plates and incubated at 37 °C for 24 h. Then, cells were treated with the peptide–DOX conjugates (equivalent DOX concentration of 10 μM) for 4 and 12 h, respectively. Cells treated with free DOX (10 μM) for 4 h were used as the positive control. After the drugs in each well were discarded, cells were washed three times with PBS and fixed with 4% paraformaldehyde for 12 h. Cell nuclei were stained with DAPI for 8 min. The fluorescent images of cells were observed by using a confocal laser scanning microscope (Olympas FV3000).

U87 cells [2] = experiment: In vitro cytotoxicity, CCK-8 assay; format: cell-based, human; conditions: for IC50: U87, 48 h, CCK-8, mean ± SD (n = 3); for cell viability: 48 h, CCK-8
Method: (§2) Human HepG2 hepatocellular carcinoma cells and human U87 glioblastoma cells were purchased from Procell Life Science & Technology Co., Ltd. (Wuhan, China), human A549 lung carcinoma cells were obtained from the School of Basic Medical Sciences, Chengde Medical University, human LO2 normal hepatic cells were purchased from Jennio Biotech Co., Ltd. (Guangzhou, China). The cells were cultured in DMEM (HepG2), MEM containing 1% non-essential amino acids (U87), and RPMI-1640 (A549 and LO2), supplemented with 10% fetal bovine serum (FBS) and 1% penicillin/streptomycin at 37 °C in a humidified atmosphere with 5% CO2.
(§3) A549, HepG2, U87, and LO2 cells were each seeded in 96-well cell culture plates at a density of 6 × 10^3 cells per well and incubated at 37 °C for 24 h. Then, cells were treated with serial concentrations of free DOX or the peptide–DOX conjugates for 48 h. After incubation, CCK-8 (10 μL) was added to each well and incubated for an additional 2 h. The absorbance of each well was measured at 450 nm with a reference wavelength of 630 nm by using a Multiskan GO microplate reader (Thermo Fisher Scientific, Waltham, MA, USA). Data for each cell line treated with free DOX or PDCs were obtained from three independent experiments.

LO2 cells [3] = experiment: In vitro cytotoxicity, CCK-8 assay; format: cell-based, human; conditions: LO2, 48 h, CCK-8, mean ± SD (n = 3)
Method: as §2, §3

U87 cells [4] = experiment: Confocal microscopy analysis of cellular uptake; format: cell-based, human
Method: as §1
(§4) After removal of the peptide solution, cells were washed three times with PBS and incubated with the ^DT7-SS-DOX conjugate (equivalent DOX concentration of 10 μM) for 4 h. Cell fixation, staining, and cellular uptake analysis by confocal microscopy were conducted as aforementioned methods.

HepG2 cells [5] = experiment: Confocal microscopy analysis of cellular uptake; format: cell-based, human
Method: as §1, §4

A549 cells [6] = experiment: Confocal microscopy analysis of cellular uptake; format: cell-based, human
Method: as §1, §4

[7] = In vitro stability of conjugates in mouse serum; format: in vitro ADME; conditions: 37 °C; for half-life at 100 µM: mouse serum (200 µL in 800 µL, diluted with water), 80 μL of 1 mM conjugate stock + 520 μL ultra-pure water + 200 μL mouse serum, methanol quench, centrifugation, intact PDC by HPLC (C18, 254 nm), mean ± SD, read-out: t1/2 of degradation in mouse serum (converted)
Method: The in vitro stability experiment of the conjugates was conducted by co-incubation with mouse serum, as previously described, with minor modifications. An 80 μL of ^LT7-SS-DOX or ^DT7-SS-DOX stock solution (1 mM) was diluted by adding ultra-pure water (520 μL) and mouse serum (200 μL). The mixture was incubated at 37 °C, aliquots (100 μL) were taken at scheduled time intervals, and then methanol (300 μL) was added to terminate the incubation. After centrifugation at 10,000 rpm for 10 min, the intact PDC that remained in the supernatant was analyzed by HPLC.

HepG2 cells [8] = experiment: In vitro cytotoxicity, CCK-8 assay; format: cell-based, human; conditions: for cell viability: 48 h, CCK-8
Method: as §2, §3

A549 cells [9] = experiment: In vitro cytotoxicity, CCK-8 assay; format: cell-based, human; conditions: for cell viability: 48 h, CCK-8
Method: as §2, §3

[10] = Reduction-triggered degradation / drug release by GSH; format: physicochemical; conditions: 37 °C; for remaining at 1 h, 100 µM: read-out: conjugate remained undegraded; for t1/2 of degradation in 5 mM GSH: intact conjugate by HPLC, mean ± SD
Method: A stock solution of ^LT7-SS-DOX or ^DT7-SS-DOX was diluted by adding 5 mM or 5 μM GSH dissolved in acetonitrile-PBS (3:7, v/v) to a final volume of 800 μL with 100 μM conjugate, and the mixture was incubated at 37 °C. Aliquots (100 μL) were taken from the incubation solution at scheduled time intervals and diluted with acetonitrile–PBS (3:7, v/v, 200 μL). After filtration, the intact conjugate that remained in the sample was analyzed by HPLC.

[11] = 5 mM GSH in acetonitrile-PBS (3:7, v/v), 100 μM conjugate, 1 h, HPLC, n = 3
[12] = 5 mM GSH in acetonitrile-PBS (3:7, v/v), 100 μM conjugate, n = 3

COc1cccc2c1C(=O)c1c(O)c3c(c(O)c1C2=O)C[C@@](O)(C(=O)CO)C[C@@H]3O[C@H]1C[C@H](N)[C@H](O)[C@H](C)O1 [DOX, Doxorubicin]
location of red (DOX) fluorescence in cells (LO2 cells [1]): located in the cell nuclei | IC50 (U87 cells [2]): 1.65 ± 0.2 µM | IC50 (LO2 cells [3]): 1.29 ± 0.18 µM | location of red (DOX) fluorescence in cells (U87 cells [4]; U87, 10 μM, 4 h, confocal laser scanning microscopy): located in the cell nuclei | location of red (DOX) fluorescence in cells (HepG2 cells [5]; HepG2, 10 μM, 4 h, confocal laser scanning microscopy): located in the cell nuclei | location of red (DOX) fluorescence in cells (A549 cells [6]; A549, 10 μM, 4 h, confocal laser scanning microscopy): located in the cell nuclei

CC[C@@H](C)[C@@H](NC(=O)[C@@H](Cc1ccc(O)cc1)NC(=O)[C@H]1CCCN1C(=O)[C@@H](CCCNC(=N)N)NC(=O)[C@H](N)Cc1c[nH]cn1)C(=O)N[C@H](C)C(=O)N[C@H](Cc1c[nH]cn1)C(=O)N[C@H](CSSCCC(=O)N[C@H]1C[C@H](O[C@H]2C[C@](O)(C(=O)CO)Cc3c(O)c4c(c(O)c32)C(=O)c2c(OC)cccc2C4=O)O[C@@H](C)[C@H]1O)C(=O)O [^DT7-SS-DOX] (H-[dH][dR][dP][dY][dI][dA][dH][dC](X1)-OH)
half-life at 100 µM [7]: 8.58 ± 0.85 h | IC50 (U87 cells [2]): 5.7 ± 0.22 µM | IC50 (HepG2 cells [8]; HepG2, 48 h, CCK-8, mean ± SD (n = 3)): 7.01 ± 1.64 µM | IC50 (A549 cells [9]; A549, 48 h, CCK-8, mean ± SD (n = 3)): 20.6 ± 4.81 µM | IC50 (LO2 cells [3]): > 100 µM | remaining at 1 h, 100 µM [10, 11]: 72.1% | t1/2 of degradation in 5 mM GSH [10, 12]: 1.93 ± 0.13 h | t1/2 in 5 mM GSH, times longer than that of ^LT7-SS-DOX ([10]; 5 mM GSH): ~8 times | fluorescence intensity after pre-treatment with TfR affinity peptide versus without (TfR competitive inhibition assay) (U87 cells [4]; U87, pre-treated with TfR affinity peptide 100 μM 8 h, then conjugate at equivalent DOX 10 μM for 4 h): lower | fluorescence intensity after pre-treatment with TfR affinity peptide versus without (TfR competitive inhibition assay) (HepG2 cells [5]; HepG2, pre-treated with TfR affinity peptide 100 μM 8 h, then conjugate at equivalent DOX 10 μM for 4 h): lower | fluorescence intensity after pre-treatment with TfR affinity peptide versus without (TfR competitive inhibition assay) (A549 cells [6]; A549, pre-treated with TfR affinity peptide 100 μM 8 h, then conjugate at equivalent DOX 10 μM for 4 h): lower

CC[C@H](C)[C@H](NC(=O)[C@H](C)NC(=O)[C@H](Cc1c[nH]cn1)NC(=O)[C@@H](N)CSSCCC(=O)N[C@H]1C[C@H](O[C@H]2C[C@](O)(C(=O)CO)Cc3c(O)c4c(c(O)c32)C(=O)c2c(OC)cccc2C4=O)O[C@@H](C)[C@H]1O)C(=O)N[C@@H](Cc1ccc(O)cc1)C(=O)N1CCC[C@H]1C(=O)N[C@@H](CCCNC(=N)N)C(=O)N[C@@H](Cc1c[nH]cn1)C(=O)O [^LT7-SS-DOX]
intact conjugate in mouse serum at 1 h ([7]; 80 μL of 1 mM stock + 520 μL water + 200 μL mouse serum, 1 h, HPLC): almost entirely degraded | half-life at 100 µM [7]: 0.37 ± 0.02 h | cell viability (U87 cells [2]; U87, equal DOX concentration of 20 µM): 95.1% | cell viability (U87 cells [2]; U87, equal DOX concentration of 40 µM): 41.0% | cell viability (HepG2 cells [8]; HepG2, equal DOX concentration of 20 µM): 73.1% | cell viability (HepG2 cells [8]; HepG2, equal DOX concentration of 40 µM): 61.5% | cell viability (A549 cells [9]; A549, equal DOX concentration of 20 µM): 83.2% | cell viability (A549 cells [9]; A549, equal DOX concentration of 40 µM): 67.2% | remaining at 1 h, 100 µM ([10]; 5 μM GSH in acetonitrile-PBS (3:7, v/v), 100 μM conjugate, 1 h, HPLC, n = 3): 93.7% | conjugate remained undegraded [10, 11]: completely degraded | t1/2 of degradation in 5 mM GSH [10, 12]: 0.26 ± 0.01 h
